The target of the assay is T1, 1-phosphatidylinositol 3-phosphate 5-kinase [S696N,L932S,Q995L,T998S,S1033A,Q1183K] (Homo sapiens, UniProt Q9Y2I7, L932S/Q1183K/Q995L/S1033A/S696N/T998S).
T1 construct: gene PIKFYVE
Put plainly: PIKfyve Inhibitory Activity Assay. How it is done: PIKfyve Biochemical Assay. The biochemical PIKFyve inhibition assays were run by Cama Biosciences according to proprietary methodology based on the Promega ADP-Glo™ Kinase assay. […] GST-PIKFYVE was purified by using glutathione sepharose chromatography and used in an ADP-Glo™ Kinase assay (Promega). Reactions were set up by adding the test compound solution, substrate solution, ATP solution and kinase solution, each at 4× final concentrations. Reactions were prepared with assay buffer (50 mM MOPS, 1 mM DTT, pH7.2), mixed, and incubated in black 384 well polystyrene plates for 1 hour at room temperature. ADP-Glo™ reagent was then added for 40 minutes, followed by kinase detection reagent for an additional 40 minutes. The kinase activity was evaluated by detecting relative light units on a luminescence plate reader. Samples were run in duplicate from 10 μM to 3 nM. […] IC50 values were calculated from concentration versus percent inhibition curves by fitting to a four-parameter logistic curve.

T1 sequence (Q9Y2I7 2-2098 S696N/L932S/Q995L/T998S/S1033A/Q1183K limits assumed): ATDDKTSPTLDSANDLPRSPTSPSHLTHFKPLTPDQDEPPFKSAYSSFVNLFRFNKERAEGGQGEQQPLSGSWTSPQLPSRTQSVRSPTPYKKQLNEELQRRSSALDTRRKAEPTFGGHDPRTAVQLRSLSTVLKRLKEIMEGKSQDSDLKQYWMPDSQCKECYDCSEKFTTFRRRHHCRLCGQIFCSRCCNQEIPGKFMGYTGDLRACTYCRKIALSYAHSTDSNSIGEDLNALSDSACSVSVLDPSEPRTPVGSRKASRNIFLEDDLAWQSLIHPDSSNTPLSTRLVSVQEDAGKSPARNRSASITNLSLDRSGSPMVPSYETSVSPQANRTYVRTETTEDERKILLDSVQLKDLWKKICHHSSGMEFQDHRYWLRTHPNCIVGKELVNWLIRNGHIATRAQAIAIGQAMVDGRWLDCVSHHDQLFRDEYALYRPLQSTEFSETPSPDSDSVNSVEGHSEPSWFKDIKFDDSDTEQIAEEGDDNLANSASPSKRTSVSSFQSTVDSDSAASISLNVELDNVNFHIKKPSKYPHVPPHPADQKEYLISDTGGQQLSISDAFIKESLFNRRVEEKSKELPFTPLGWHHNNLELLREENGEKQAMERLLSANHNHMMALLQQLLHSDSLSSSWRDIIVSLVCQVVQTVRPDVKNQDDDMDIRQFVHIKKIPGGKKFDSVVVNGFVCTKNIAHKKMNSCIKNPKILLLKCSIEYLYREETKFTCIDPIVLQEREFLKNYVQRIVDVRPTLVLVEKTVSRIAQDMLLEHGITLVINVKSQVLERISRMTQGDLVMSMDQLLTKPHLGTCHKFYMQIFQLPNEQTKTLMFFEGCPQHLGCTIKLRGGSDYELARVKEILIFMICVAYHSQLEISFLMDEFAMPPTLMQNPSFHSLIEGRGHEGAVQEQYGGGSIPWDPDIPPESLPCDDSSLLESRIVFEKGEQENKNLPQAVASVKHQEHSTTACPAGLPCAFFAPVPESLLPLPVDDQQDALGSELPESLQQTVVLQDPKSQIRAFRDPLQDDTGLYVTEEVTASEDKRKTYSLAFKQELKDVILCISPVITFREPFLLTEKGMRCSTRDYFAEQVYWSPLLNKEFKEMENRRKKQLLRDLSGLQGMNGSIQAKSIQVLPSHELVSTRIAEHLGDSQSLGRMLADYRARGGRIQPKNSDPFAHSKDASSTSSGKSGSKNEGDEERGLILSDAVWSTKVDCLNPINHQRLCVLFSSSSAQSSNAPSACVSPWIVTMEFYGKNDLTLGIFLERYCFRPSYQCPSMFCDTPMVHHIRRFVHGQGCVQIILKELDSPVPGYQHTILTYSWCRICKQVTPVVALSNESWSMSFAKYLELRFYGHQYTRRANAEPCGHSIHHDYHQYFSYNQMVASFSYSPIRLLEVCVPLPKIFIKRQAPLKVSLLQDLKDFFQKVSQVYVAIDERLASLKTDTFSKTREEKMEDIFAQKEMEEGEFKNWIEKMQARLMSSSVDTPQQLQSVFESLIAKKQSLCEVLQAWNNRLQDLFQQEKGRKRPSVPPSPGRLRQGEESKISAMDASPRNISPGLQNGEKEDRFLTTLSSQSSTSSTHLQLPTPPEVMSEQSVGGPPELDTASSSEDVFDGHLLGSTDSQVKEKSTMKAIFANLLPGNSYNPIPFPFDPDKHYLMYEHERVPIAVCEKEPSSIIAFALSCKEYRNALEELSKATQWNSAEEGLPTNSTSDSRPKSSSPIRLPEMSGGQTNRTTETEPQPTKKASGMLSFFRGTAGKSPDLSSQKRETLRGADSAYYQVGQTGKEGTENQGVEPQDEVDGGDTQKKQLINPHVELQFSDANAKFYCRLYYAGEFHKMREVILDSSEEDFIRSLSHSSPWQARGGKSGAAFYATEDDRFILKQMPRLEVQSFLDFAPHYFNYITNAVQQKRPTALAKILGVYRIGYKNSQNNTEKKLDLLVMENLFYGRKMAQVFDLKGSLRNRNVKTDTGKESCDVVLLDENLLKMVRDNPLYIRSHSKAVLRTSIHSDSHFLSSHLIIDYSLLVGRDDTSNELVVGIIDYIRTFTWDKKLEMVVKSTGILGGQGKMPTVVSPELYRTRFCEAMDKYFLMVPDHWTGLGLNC

A word on the IC50: it is the concentration needed to halve the response being measured. A lower IC50 goes with inhibition by little substance. `CN(C)C(=O)c1c(Nc2ccncc2)nc(N2CCOCC2)nc1-c1cccc(-c2ccn(C)n2)c1` [US20250197375, Compound 66] gave an IC50 of under 10 nM.

(Values after BindingDB's records for patent US20250197375 (Kineta, 2025).)
